The record followed here is ChEMBL document CHEMBL5729078, “Inhibitors of cysteine proteases and methods of use thereof” (2022).

A short description of this assay: Evaluation of Antiviral Activity of Compounds Against Human Coronavirus (HCov) 229E and OC43 in the Cytopathic Effect (CPE) Assays: Compounds were assayed using standard methods against multiple coronaviral strains, including HCoV 229E and OC43 strains.

SMILES strings stand for the structures. A value given as a limit tells only on which side of the number the result lay.

One may read the EC50 as the midpoint of the concentration-response curve. Lower therefore signals higher potency in that assay. `CCCOc1cccc2[nH]c(C(=O)N[C@@H](CC(C)C)C(=O)N[C@H](C#N)C[C@@H]3CCNC3=O)cc12` registered an EC50 of less than 2000 nM.

The IC50 is the concentration that gives 50% inhibition. A high value points to lower potency. Consider `N#C[C@H](C[C@@H]1CCCNC1=O)NC(=O)[C@H]1CC2(CN1C(=O)c1cc3cccc(Cl)c3[nH]1)CC(F)(F)C2` (single isomer, unassigned), for which the EC50 is less than 2000 nM and the half-maximal inhibitory concentration (IC50) is less than 2000 nM.

On to `N#C[C@H](C[C@@H]1CCCNC1=O)NC(=O)[C@@H]1CC2(CCCCC2)CN1C(=O)c1cc2ccc(Cl)cc2[nH]1` (single isomer, unassigned), for which the EC50 was less than 2000 nM and the IC50 was less than 2000 nM.

Compound `COc1cccc2[nH]c(C(=O)N[C@@H](CC3CC3)C(=O)N[C@@]3(C#N)C[C@@H]4CC[C@@H]3[C@H]3C(=O)NC(=O)[C@@H]43)cc12` (single isomer, unassigned; isomer 1) showed an IC50 of more than 30000 nM.

Compound `COc1cccc2[nH]c(C(=O)N3CC4(CCC4)C[C@@H]3C(=O)N[C@H](C#N)C[C@@H]3CCCNC3=O)cc12` (single isomer, unassigned; isomer 2) gave an EC50 of less than 2000 nM.
